Experiments:
Test in all cases: relative viability (nuclei count vs DMSO), 5 days (fraction); higher = more cells survive
[1] = compound: CC(O)(CS(=O)(=O)c1ccc(F)cc1)C(=O)Nc1ccc(C#N)c(C(F)(F)F)c1 [Bicalutamide] + CC(C)C[C@H](NC(=O)[C@H](Cc1ccccc1)NC(=O)c1cnccn1)B(O)O [Bortezomib] (partner 0.002 µM)
Summary of the method: (§1)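 After 5 days of treatment, lung cancer cells in 1536-well plates were fixed and stained in a single step (final 0.05% Triton X-100, 1% formaldehyde, 1 ug/ml Hoechst) and their nuclei counted on 4× images. Treatment had been applied by pin tool the day after seeding as one drug alone or as a fixed anchor-drug dose with five library-drug doses (not always all listed) in √10 steps. Relative viability is the nuclei count of treated wells divided by that of vehicle wells, and values are medians of duplicate plates.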

[2] = compound: C(C(=O)C(=O)O)Br [Bromopyruvate] + Nc1nc2[nH]cc(CCc3ccc(C(=O)N[C@@H](CCC(=O)O)C(=O)O)cc3)c2c(=O)[nH]1 [Pemetrexed] (partner 0.2 µM)
Summary of the method: as §1

[3] = compound: CC(O)(CS(=O)(=O)c1ccc(F)cc1)C(=O)Nc1ccc(C#N)c(C(F)(F)F)c1 [Bicalutamide] + C[C@@H](Oc1cc(-c2cnn(C3CCNCC3)c2)cnc1N)c1c(Cl)ccc(F)c1Cl [Crizotinib] (partner 1 µM)
Summary of the method: as §1

[4] = compound: C(C(=O)C(=O)O)Br [Bromopyruvate] + COc1cc2c(Oc3ccc(NC(=O)C4(C(=O)Nc5ccc(F)cc5)CC4)cc3F)ccnc2cc1OCCCN1CCOCC1 [Foretinib] (partner 0.25 µM)
Summary of the method: as §1

UMC-11 gave a relative viability ([1]; first compound 0.08 µM) of 0.758, a relative viability ([1]; first compound 0.253 µM) of 0.67 and a relative viability ([1]; first compound 0.8 µM) of 0.762. For the same cell line, the relative viability ([1]; first compound 2.53 µM) was 0.596, the relative viability ([2]; first compound 1 µM) was 0.801 and the relative viability ([2]; first compound 3.162 µM) was 0.841. It also gave a relative viability ([2]; first compound 10 µM) of 0.777, a relative viability ([2]; first compound 31.62 µM) of 0.708 and a relative viability ([2]; first compound 100 µM) of 0.736. The relative viability ([3]; first compound 0.08 µM) was 0.69, the relative viability ([3]; first compound 0.253 µM) was 0.521 and the relative viability ([3]; first compound 0.8 µM) was 0.643. The relative viability ([3]; first compound 2.53 µM) was 0.399, the relative viability ([4]; first compound 1 µM) was 1.05 and the relative viability ([4]; first compound 3.162 µM) was 1.02. The relative viability ([4]; first compound 10 µM) was 1.04, the relative viability ([4]; first compound 31.62 µM) was 0.989 and the relative viability ([4]; first compound 100 µM) was 0.987.

Reference: the supplement of paper PMC10307832
